Laboratory results from PubChem BioAssay (NCI).
Where “and” joins values, the source holds several entries; their conditions need not be identical. Equal values may be shown once.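 Five compound concentrations were applied to cells in 96-well plates for 48 hours; endpoints were derived by simple linear interpolation of the resulting dose-response curve. Abbreviation: GI50, concentration required for 50% inhibition of growth. TGI is the concentration that stops growth completely.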

What was measured:
Assay in all cases: growth of human tumour cells (NCI), 48 h
EKVX NSCLC = tested on: EKVX NSCLC
KM12 colon = tested on: KM12 colon
OVCAR-5 ovarian = tested on: OVCAR-5 ovarian
SN12C renal = tested on: SN12C renal
SK-MEL-28 melanoma = tested on: SK-MEL-28 melanoma
ACHN renal = tested on: ACHN renal
PC-3 prostate = tested on: PC-3 prostate
HOP-92 NSCLC = tested on: HOP-92 NSCLC
SF-539 CNS = tested on: SF-539 CNS
HCC-2998 colon = tested on: HCC-2998 colon
SK-MEL-5 melanoma = tested on: SK-MEL-5 melanoma
HCT-116 colon = tested on: HCT-116 colon
RPMI-8226 leukemia = tested on: RPMI-8226 leukemia

SMILES | TGI (EKVX NSCLC) [µM] | TGI (KM12 colon) [µM] | TGI (OVCAR-5 ovarian) [µM] | TGI (SN12C renal) [µM] | TGI (SK-MEL-28 melanoma) | TGI (ACHN renal) [µM] | TGI (PC-3 prostate) [µM] | TGI (HOP-92 NSCLC) | TGI (SF-539 CNS) [µM] | TGI (HCC-2998 colon) | TGI (SK-MEL-5 melanoma) | TGI (HCT-116 colon) | TGI (RPMI-8226 leukemia) | GI50 (OVCAR-5 ovarian) | GI50 (SN12C renal) | GI50 (SK-MEL-28 melanoma) | GI50 (ACHN renal) | GI50 (HOP-92 NSCLC) | GI50 (HCC-2998 colon) | GI50 (KM12 colon) [µM]
CCOP(=O)(OCC)/C(C#N)=C/c1ncc[nH]1 | > 100 | > 100 | > 100 | > 100 | > 100 µM | > 100 | > 100 | > 100 µM | 72.9 | > 100 µM | > 100 µM | > 100 µM | > 100 µM |  |  |  |  |  |  | 
O=C1CCCCC/C1=C\c1cccc(Cl)c1 | > 100 | > 100 | > 100 | > 100 | > 100 µM | > 100 | 80.4 | > 100 µM |  | > 100 µM | > 100 µM | > 100 µM | > 100 µM |  |  |  |  |  |  | 
O=C1CCC2C(O)c3cc4c(cc3C(c3ccc5c(c3)OCO5)N12)OCO4 (stereo not given) | > 100 | > 100 | > 100 | > 100 | > 100 µM | > 100 | > 100 | 66.8 µM | > 100 | > 100 µM | > 100 µM | > 100 µM | > 100 µM |  |  |  |  |  |  | 
CCCCCCCCCCCCCCCCCCNc1ccn(C2OC(COP(=O)(O)OCC3OC(n4cc(F)c(=O)[nH]c4=O)CC3O)C(O)C2O)c(=O)n1 (stereo not given) | > 100 | 41.8 | 39.7 | > 100 | > 100 µM | > 100 | 19.7 | > 100 µM |  | > 100 µM | > 100 µM | > 100 µM | > 53.3 µM |  |  |  |  |  |  | 
CCOC(=O)/C(C#N)=C\c1ccc(N(CCC(=O)O)CCC(=O)O)c(I)c1 | > 10 | > 10 |  | > 10 | > 10 µM | > 10 | > 10 | > 10 µM | > 10 | > 10 µM | > 10 µM | > 10 µM | > 10 µM |  |  |  |  |  |  | 
N#Cc1c(-c2ccccc2)cc(-c2ccccc2)n(C2OC(CO)C(O)C(O)C2O)c1=S (stereo not given) | > 100 | > 100 | > 100 | > 100 | 47.4 µM and > 100 µM | > 100 | > 100 | > 100 µM |  | 91 µM and > 100 µM | 29.1 µM and > 100 µM | 46.9 µM and > 100 µM | 56.3 µM and > 100 µM | 35.8 µM and > 100 µM | 36.8 µM and 84.1 µM | 18.8 µM and 53.5 µM | 30.7 µM and 66.6 µM | 46.6 µM and > 100 µM | 26.4 µM and 93.8 µM | 
COc1ccc(-c2c(C#N)c(N)n(C3OCC(OC(C)=O)C(OC(C)=O)C3OC(C)=O)c(=S)c2C#N)cc1 (stereo not given) | > 100 | > 100 | > 100 | > 100 | > 100 µM | > 100 | > 100 | 88.8 µM and 98.5 µM | > 100 | 60.9 µM and > 100 µM | > 100 µM | > 100 µM | 75.1 µM and 97.5 µM |  |  |  |  |  |  | 
CN(C)Nc1cc(=O)[nH]c(=O)[nH]1 | > 100 | > 100 | > 100 | > 100 | > 100 µM | > 100 | > 100 | > 100 µM | > 100 | > 100 µM | > 100 µM | > 100 µM | > 100 µM |  |  |  |  |  |  | 
CCOC(=O)c1cnc2oc3ccc(O)cc3c2c1C | > 100 | > 100 | > 100 | > 100 | > 100 µM | > 100 | > 100 | > 100 µM | > 100 | > 100 µM | > 100 µM | > 100 µM | > 100 µM |  |  |  |  |  |  | 70.3
